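48-hour exposure; five concentrations; linearly interpolated endpoints. GI50: concentration for 50% inhibition of growth. Definition used: TGI = concentration required for complete inhibition of growth.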

Our source for the GI50 and TGI values is PubChem BioAssay (NCI).

Some test systems named below: SN12C renal; CAKI-1 renal; HT29 colon; SNB-75 CNS; M14 melanoma; EKVX NSCLC; OVCAR-3 ovarian; SK-MEL-28 melanoma; SW-620 colon; UACC-62 melanoma.
Holding throughout (test): NCI anticancer screen, dose series, 48 h

Regarding `CC(=O)N[C@H](C(=O)N[C@@H](CCCNC(=N)N)C(=O)N[C@@H](CCCCN)C(=O)N[C@@H](CCCNC(=N)N)C(=O)N[C@]1(C)CCCCCC/C=C\CCC[C@@](C)(C(=O)N[C@@H](CCCNC(=N)N)C(=O)N[C@@H](CCC(=O)O)C(=O)N[C@@H](CC(C)C)C(=O)N[C@H](C(=O)N[C@@H](CCC(=O)O)C(N)=O)C(C)C)NC(=O)[C@H](CCC(N)=O)NC(=O)[C@H](CC(C)C)NC(=O)[C@H](CC(C)C)NC(=O)[C@H](CCCNC(=N)N)NC(=O)[C@H](CCCNC(=N)N)NC(=O)[C@H](CC(C)C)NC1=O)C(C)C`, the GI50 in the experiment on SN12C renal was 2.33 µM; in the experiment with CAKI-1 renal, 2.06 µM; with HT29 colon, 7.91 µM; in the experiment with SNB-75 CNS, 1.99 µM; in the experiment on M14 melanoma, 2.13 µM; in the experiment on EKVX NSCLC, 1.75 µM. For the same compound, the GI50 is 6.16 µM with OVCAR-3 ovarian, 2.64 µM in the experiment with SK-MEL-28 melanoma and 7.84 µM with SW-620 colon. In addition, the TGI is greater than 50 µM in the experiment on SN12C renal; 11.7 µM in the experiment with CAKI-1 renal; 41.3 µM with HT29 colon; 13.1 µM in the experiment with SNB-75 CNS; 27.6 µM with M14 melanoma; 23.2 µM with EKVX NSCLC. The TGI with OVCAR-3 ovarian was determined as 19.2 µM; with SK-MEL-28 melanoma, 21.7 µM; in the experiment on SW-620 colon, 20.2 µM.
With `Cc1cc(Nc2nc(SCc3ccc(C(=O)Nc4ccc(F)cc4N)cc3)nn3cccc23)n[nH]1`, the GI50 in the experiment on SN12C renal is 1.25 µM; in the experiment on HT29 colon it was 0.322 µM; in the experiment on SNB-75 CNS, 0.198 µM; in the experiment with M14 melanoma, 0.289 µM; in the experiment with EKVX NSCLC, 0.919 µM; in the experiment with OVCAR-3 ovarian, 0.202 µM. The GI50 in the experiment with SK-MEL-28 melanoma is 2.83 µM; with SW-620 colon it was 0.426 µM; in the experiment with UACC-62 melanoma, 0.347 µM. The TGI is greater than 100 µM in the experiment with SN12C renal; 10.1 µM with HT29 colon; 35.4 µM with SNB-75 CNS; 15.7 µM in the experiment with M14 melanoma; 55.9 µM with EKVX NSCLC; 49.1 µM in the experiment on OVCAR-3 ovarian. The TGI with SK-MEL-28 melanoma is 51.8 µM; in the experiment with SW-620 colon, greater than 100 µM; with UACC-62 melanoma it was 21.6 µM.
`COc1ccccc1-c1cc(=O)c2ccc(C)nc2[nH]1`: the TGI in the experiment on SN12C renal, in the experiment with CAKI-1 renal, with HT29 colon, in the experiment with M14 melanoma, with EKVX NSCLC and with OVCAR-3 ovarian was greater than 100 µM in each case. In addition, the TGI in the experiment on SK-MEL-28 melanoma, in the experiment with SW-620 colon and in the experiment with UACC-62 melanoma was greater than 100 µM throughout. Besides, in the experiment on OVCAR-3 ovarian, the GI50 is greater than 100 µM.
As to `C=CCC1[C@@H](C(C)(C)C(C(C)=O)C(=O)C(=O)OC)OC(C(C)(C)C)N1C(=O)OC` (stereo not given in full), the TGI in the experiment with SN12C renal, in the experiment on HT29 colon, in the experiment on SNB-75 CNS, with M14 melanoma, in the experiment with EKVX NSCLC and in the experiment with OVCAR-3 ovarian was greater than 100 µM throughout. The TGI in the experiment with SK-MEL-28 melanoma and in the experiment with UACC-62 melanoma was greater than 100 µM throughout.
As for `CCOC(=O)/C(=C/c1cccc(OC)c1)N(CC)CC`, the TGI in the experiment on CAKI-1 renal, in the experiment with HT29 colon, in the experiment on M14 melanoma, with EKVX NSCLC, in the experiment on OVCAR-3 ovarian and with SK-MEL-28 melanoma was greater than 100 µM in each case. In addition, the TGI in the experiment on SW-620 colon and with UACC-62 melanoma was greater than 100 µM in each case.
With `OC(CN1CC1)C(O)CN1CC1` (stereo not given), the GI50 with SN12C renal, with CAKI-1 renal, in the experiment on HT29 colon, with M14 melanoma, in the experiment on EKVX NSCLC and in the experiment on OVCAR-3 ovarian was greater than 50 µg/mL throughout. Besides, the GI50 with SK-MEL-28 melanoma, in the experiment on SW-620 colon and in the experiment on UACC-62 melanoma was greater than 50 µg/mL throughout. For the same compound, the TGI in the experiment on SN12C renal, in the experiment with CAKI-1 renal, in the experiment on HT29 colon, in the experiment on M14 melanoma, with EKVX NSCLC and in the experiment on OVCAR-3 ovarian was greater than 50 µg/mL in each case. Besides, the TGI in the experiment with SK-MEL-28 melanoma, in the experiment on SW-620 colon and with UACC-62 melanoma was greater than 50 µg/mL each time.
For the compound `Cn1c(/C(C#N)=C/c2ccc3ccccc3c2)cc2ccccc21`, the GI50 is 0.389 µM in the experiment on SN12C renal; 0.0605 µM in the experiment on CAKI-1 renal; 0.353 µM in the experiment with HT29 colon; 0.0628 µM with SNB-75 CNS; 0.104 µM in the experiment with M14 melanoma; 0.471 µM in the experiment on EKVX NSCLC. Further, the GI50 in the experiment with SK-MEL-28 melanoma is 16.6 µM; with SW-620 colon it was 0.0935 µM; with UACC-62 melanoma, 0.0425 µM. Besides, the TGI is greater than 100 µM in the experiment with SN12C renal; greater than 100 µM in the experiment on CAKI-1 renal; greater than 100 µM in the experiment with HT29 colon; greater than 92.7 µM in the experiment on SNB-75 CNS; greater than 100 µM with M14 melanoma; greater than 100 µM in the experiment with EKVX NSCLC. Moreover, the TGI in the experiment on SK-MEL-28 melanoma, in the experiment on SW-620 colon and in the experiment with UACC-62 melanoma was greater than 100 µM in each case.
For the compound `c1ccc2nc3c(cc4ccccn43)nc2c1`, the GI50 is 70 µM with SN12C renal; 55.2 µM with CAKI-1 renal; greater than 100 µM in the experiment with HT29 colon; greater than 100 µM in the experiment with M14 melanoma; 18.9 µM with EKVX NSCLC; greater than 100 µM with OVCAR-3 ovarian. The results for the GI50 in the experiment on SK-MEL-28 melanoma, with SW-620 colon and in the experiment with UACC-62 melanoma were greater than 100 µM, greater than 100 µM and 17.4 µM, respectively. Also, the TGI in the experiment on SN12C renal, in the experiment on CAKI-1 renal, in the experiment on HT29 colon, in the experiment with M14 melanoma, in the experiment with EKVX NSCLC and with OVCAR-3 ovarian was greater than 100 µM throughout. In addition, the TGI in the experiment on SK-MEL-28 melanoma, in the experiment with SW-620 colon and in the experiment on UACC-62 melanoma was greater than 100 µM throughout.
Take `C=CCOC(=O)CC[N+]1=CCC(c2ccccc2)(c2ccccc2)O1`: the TGI in the experiment on SN12C renal, with CAKI-1 renal, in the experiment with HT29 colon, in the experiment with M14 melanoma, in the experiment on EKVX NSCLC and with OVCAR-3 ovarian was greater than 100 µM in each case. For the same compound, the TGI in the experiment with SK-MEL-28 melanoma, with SW-620 colon and in the experiment on UACC-62 melanoma was greater than 100 µM throughout.
